Source: publication PMC10728852, “In Vitro and In Vivo Antidiabetic, α-Glucosidase Inhibition and Antibacterial Activities of Three Brown Algae, Polycladia myrica, Padina antillarum, and Sargassum boveanum, and a Red Alga, Palisada perforata from the Persian Gulf” (Iranian Journal of Pharmaceutical Research : IJPR, 2023)

Biological target: T1, yeast's α-glucosidase
T1 construct: gene MAL12; yeast enzyme
Test: colorimetric α-glucosidase inhibition assay
Assay type: biochemical, Saccharomyces cerevisiae
Settings: standard drug; substrate and buffer only in supplement
Source text: colorimetric α-glucosidase inhibition assay on yeast's α-glucosidase

Enzyme Inhibition IC50: 160.15 ± 27.52 µg/mL
SMILES: C[C@H]1O[C@H](O[C@H]2[C@H](O)[C@@H](O)[C@@H](O[C@H]3[C@H](O)[C@@H](O)C(O)O[C@@H]3CO)O[C@@H]2CO)[C@H](O)[C@@H](O)[C@@H]1N[C@H]1C=C(CO)[C@@H](O)[C@H](O)[C@H]1O (stereo partly shown) [Acarbose]
